Source: patent publication US6506893B1, “Polynucleotides and their use for detecting resistance to streptogramin A or to streptogramin B and related compounds” (priority 1997, dated 2003)

Tests used:
[1] = test system: S. aureus recipient strain RN4220 transformant harboring pIP1714; experiment: Susceptibility to antimicrobial agents, S. aureus RN4220 transformant harboring pIP1714 (vatC, vgbB); format: cell-based, Staphylococcus aureus; details: RN4220 transformant with pIP1714, selected on BHIA with 10 μg/ml pristinamycin IIA
Method: The strain BM10711 harbored several plasmids including pIP1714 (5kb). This plasmid was […] by electroporation in a S. aureus recipient strain, RN4220. The transformant, harboring pIP1714, was selected on BHIA containing 10 μg/ml pristinamycin IIA.
Susceptibility to antimicrobial agents was determined with a disk diffusion assay and commercially available disks (Diagnostic Pasteur). Additional disks prepared in our laboratory contained streptogramin A (20 μg) or streptogramin B (40 μg).
(§1) Minimal inhibitory concentrations (MICs) of antibiotics were determined by serial twofold dilutions of antibiotics in MHA (Ericson H. M. and S. C. Sherris, ActaPathol. Microbiol. Scand., 1971, Suppl. 217:Section B).

[2] = test system: Staphylococci resistant to synergistic mixtures of A and B compounds; details: Allignet et al., 1996; cited from earlier work
[3] = test system: S. aureus recipient RN4220 transformants with pIP1717; experiment: MIC by serial twofold dilutions in MHA, S. aureus RN4220 transformants carrying pIP1717 (vgaB); format: cell-based; details: Staphylococcus aureus; S. aureus RN4220 transformants with pIP1717 (2.4 kb HindIII-HaeIII fragment carrying vgaB), selected on 10 μg/ml erythromycin; read-out: PIIA MICs
Description: First, the 2.4 kb HindIII-HaeIII fragment of pIP 1675, which contains only 10 nucleotide from vatB, was inserted into plasmid pOX300, and the recombinant plasmid, pIP1717 (FIG. 1B), was introduced by electroporation into the S. aureus recipient, RN4220 (Kreiswirth et al., 1983). Plasmid pOX300, also named pOX7, (Dyke and Curnock, 1989), is a hybrid of pUC18 and pE194ts and replicates in E. coli where it confers resistance to ampicillin and to erythromycin, and in S. aureus where only resistance to erythromycin is expressed. The S. aureus transformants selected on 10 μg/ml erythromycin were resistant to streptogramin A and related compounds (PIIA MICs=8-16 μg/ml). Thus, the 2.4-kb HindIII-HaeIII insert of pIP1717 (FIG. 1B) probably carried a streptogramin A resistance gene and was sequenced. The nucleotide (nucleotide) sequence of this fragment was determined by the dideoxy method (Sanger et al., 1977) with the reagents and the procedure recommended by the suppliers of the T^7 sequencing kit (Pharmacia International). Arrows indicate the direction and extent of each dideoxy-sequencing reaction. (FIG. 1B).
as §1

Compound | resistance conferred by plasmid [1] | MIC [2] | MIC [3]
streptogramin B | resistances |  | 
streptogramin A | resistances |  | 
CC1=C\[C@@H](O)CC(=O)Cc2nc(co2)C(=O)N2CCC=C2C(=O)O[C@H](C(C)C)[C@H](C)/C=C/C(=O)NC\C=C\1 [PIIA, pristinamycin IIA] |  | ≥ 8 mg/L | 8 to 16 mg/L
